For 19 compounds, IC50 results are on record in patent publication US9572811B2, “Treatment of dry eye” (PRINCIPIA BIOPHARMA INC., priority 2012, dated 2017).

Each structure is given as a SMILES string. Like-named read-outs stand apart in the source and are kept apart here.

The assay has as its target human recombinant Btk (Homo sapiens (Human), UniProt Q06187). The assay can be described thus: Btk enzymatic activity assay (Caliper-based kinase assay). Type of assay: biochemical. The note with it: read-out: IC50 (μm).
Setting [1] is: human recombinant Btk 2 nM, ATP 40 μM, peptide substrate 1 μM, room temperature 3 h.

human recombinant Btk, sequence (Q06187 whole entry): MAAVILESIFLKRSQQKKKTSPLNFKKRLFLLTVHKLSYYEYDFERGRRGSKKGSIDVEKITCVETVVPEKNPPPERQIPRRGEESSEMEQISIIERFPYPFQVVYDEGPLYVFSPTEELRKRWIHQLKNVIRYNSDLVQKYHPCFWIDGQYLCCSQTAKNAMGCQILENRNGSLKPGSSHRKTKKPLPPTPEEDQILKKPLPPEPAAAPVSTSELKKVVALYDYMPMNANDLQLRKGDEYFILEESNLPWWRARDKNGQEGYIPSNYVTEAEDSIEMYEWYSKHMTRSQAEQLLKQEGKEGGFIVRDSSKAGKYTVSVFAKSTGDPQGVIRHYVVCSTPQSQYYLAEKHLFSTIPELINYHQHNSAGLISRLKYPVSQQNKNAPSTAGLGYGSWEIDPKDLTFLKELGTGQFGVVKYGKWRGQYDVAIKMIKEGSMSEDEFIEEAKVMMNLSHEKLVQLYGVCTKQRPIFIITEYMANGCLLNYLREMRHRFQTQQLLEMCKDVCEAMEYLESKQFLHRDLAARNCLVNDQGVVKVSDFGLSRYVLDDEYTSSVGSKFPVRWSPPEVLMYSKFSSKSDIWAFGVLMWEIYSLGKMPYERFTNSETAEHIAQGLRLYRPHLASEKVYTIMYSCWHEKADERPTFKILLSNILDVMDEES
Protocol: A Caliper-based kinase assay (Caliper Life Sciences, Hopkinton, Mass.) was used to measure inhibition of Btk kinase activity of a compound of Formula (I). […] The reaction was then terminated with EDTA, final concentration 20 mM and the phosphorylated reaction product was quantified on a Caliper Desktop Profiler (Caliper LabChip 3000). […] This value is presented as the IC50.

By IC50 is commonly meant the concentration that inhibits the measured activity by half. Regarding `CNC(C)(C)C=C(C#N)C(=O)N1CCC[C@H]1Cn1nc(-c2ccc(Oc3cccc(F)c3F)cc2F)c2c(N)ncnc21` [Cpd 105B, (S)-2-(2-((4-amino-3-(4-(2,3-difluorophenoxy)-2-fluorophenyl)-1H-pyrazolo[3,4-d]pyrimidin-1-yl)methyl)pyrrolidine-1-carbonyl)-4-methyl-4-(methylamino)pent-2-enenitrile], under setting [1], the IC50 turned out to be 25.5 nM.

With `N#CC(=CC1CC1)C(=O)N1CCC(n2nc(-c3ccc(Oc4ccccc4)cc3)c3c(N)ncnc32)CC1` [Cpd 3, 2-(4-(4-amino-3-(4-phenoxyphenyl)-1H-pyrazolo[3,4-d]pyrimidin-1-yl)piperidine-1-carbonyl)-3-cyclopropylacrylonitrile], the half-inhibitory concentration (IC50) under setting [1] was found to be 175 nM. With `N#CC(=CC1CC1)C(=O)N1CCC[C@H]1Cn1nc(-c2ccc(Oc3c(F)cccc3F)cc2F)c2c(N)ncnc21` [Cpd 44B, (S)-2-(2-((4-amino-3-(2-fluoro-4-(2,6-difluorophenoxy)phenyl)-1H-pyrazolo[3,4-d]pyrimidin-1-yl)methyl)pyrrolidine-1-carbonyl)-3-cyclopropylacrylonitrile], the IC50 under setting [1] was 3 nM. On to `CCOC(C)(C)C=C(C#N)C(=O)N1CCC[C@@H]1Cn1nc(-c2ccc(Oc3ccccc3)cc2F)c2c(N)ncnc21` [Cpd 89A, (R)-2-(2-((4-amino-3-(2-fluoro-4-phenoxyphenyl)-1H-pyrazolo[3,4-d]pyrimidin-1-yl)methyl)pyrrolidine-1-carbonyl)-4-ethoxy-4-methylpent-2-enenitrile], for which the IC50 under setting [1] was 3100 nM.

With `CC(C)(C=C(C#N)C(=O)N1CCC[C@H]1Cn1nc(-c2ccc(Oc3ccccc3)cc2F)c2c(N)ncnc21)N1CCOCC1` [Cpd 95B, (S)-2-(2-((4-amino-3-(2-fluoro-4-phenoxyphenyl)-1H-pyrazolo[3,4-d]pyrimidin-1-yl)methyl)pyrrolidine-1-carbonyl)-4-methyl-4-morpholinopent-2-enenitrile], under setting [1], the IC50 was 3.2 nM. For the compound `CN(C)C(C)(C)C=C(C#N)C(=O)N1CCC[C@@H]1Cn1nc(-c2ccc(Oc3cccc(F)c3F)cc2F)c2c(N)ncnc21` [Cpd 106A, (R)-2-(2-((4-amino-3-(4-(2,3-difluorophenoxy)-2-fluorophenyl)-1H-pyrazolo[3,4-d]pyrimidin-1-yl)methyl)pyrrolidine-1-carbonyl)-4-(dimethylamino)-4-methylpent-2-enenitrile], under setting [1], the half-maximal inhibitory concentration (IC50) is 6 nM. Still for that read-out and setting: the value for `C[C@H](Cn1nc(-c2ccc(Oc3ccccc3)cc2F)c2c(N)ncnc21)NC(=O)C(C#N)=CC(C)(C)N` [Cpd 188] was 0.7 nM; that for `CNC(C)(C)C=C(C#N)C(=O)N1CCC[C@@H]1Cn1nc(-c2ccc(Oc3cccc(F)c3F)cc2F)c2c(N)ncnc21` [Cpd 105A, (R)-2-(2-((4-amino-3-(4-(2,3-difluorophenoxy)-2-fluorophenyl)-1H-pyrazolo[3,4-d]pyrimidin-1-yl)methyl)pyrrolidine-1-carbonyl)-4-methyl-4-(methylamino)pent-2-enenitrile] was 1.3 nM.

With `CC(C)(C=C(C#N)C(=O)N1CCC[C@@H]1Cn1nc(-c2ccc(Oc3ccccc3)cc2F)c2c(N)ncnc21)N1CCOCC1` [Cpd 95A, (R)-2-(2-((4-amino-3-(2-fluoro-4-phenoxyphenyl)-1H-pyrazolo[3,4-d]pyrimidin-1-yl)methyl)pyrrolidine-1-carbonyl)-4-methyl-4-morpholinopent-2-enenitrile], the IC50 under setting [1] amounted to 26.5 nM.

Regarding `COc1cc(-c2nn(CC3CCCN3C(=O)C(C#N)=CC3CC3)c3ncnc(N)c23)ccc1Oc1ccc(Cl)c(Cl)c1` (stereo not shown) [Cpd 5], the 50% inhibitory concentration (IC50) under setting [1] worked out at 1 nM. The same measure, in the same setting: the value for `C[C@@H](Cn1nc(-c2ccc(Oc3ccccc3)cc2F)c2c(N)ncnc21)NC(=O)C(C#N)=CC1CC1` [Cpd 197B] was 32.5 nM; that for `CC(C)(C=C(C#N)C(=O)N1CCC[C@H]1Cn1nc(-c2ccc(Oc3ccccc3)cc2F)c2c(N)ncnc21)NC1CC1` [Cpd 87B, (S)-2-(2-((4-amino-3-(2-fluoro-4-phenoxyphenyl)-1H-pyrazolo[3,4-d]pyrimidin-1-yl)methyl)pyrrolidine-1-carbonyl)-4-(cyclopropylamino)-4-methylpent-2-enenitrile] was 12 nM. For the compound `NC(=O)C(=CC1CC1)C(=O)N1CCC[C@@H](n2nc(-c3ccc(Oc4ccccc4)cc3)c3c(N)ncnc32)C1` [Cpd 30A, (R)-2-(3-(4-amino-3-(4-phenoxyphenyl)-1H-pyrazolo[3,4-d]pyrimidin-1-yl)piperidine-1-carbonyl)-3-cyclopropylacrylamide], the IC50 came out at 1.7 nM. Consider `N#CC(=CC1CC1)C(=O)NC1CCC(n2nc(-c3ccc(Oc4ccccc4)cc3)c3c(N)ncnc32)CC1` (stereo not shown) [Cpd 11, N-((1s,4s)-4-(4-amino-3-(4-phenoxyphenyl)-1H-pyrazolo[3,4-d]pyrimidin-1-yl)cyclohexyl)-2-cyano-3-cyclopropylacrylamide], for which, under setting [1], the half-inhibitory concentration (IC50) amounted to 14 nM. As to `COCCNC(C)(C)C=C(C#N)C(=O)N1CCC[C@H]1Cn1nc(-c2ccc(Oc3ccccc3)cc2F)c2c(N)ncnc21` [Cpd 88B, (S)-2-(2-((4-amino-3-(2-fluoro-4-phenoxyphenyl)-1H-pyrazolo[3,4-d]pyrimidin-1-yl)methyl)pyrrolidine-1-carbonyl)-4-((2-methoxyethyl)amino)-4-methylpent-2-enenitrile], the IC50 under setting [1] is 29 nM. With `[C-]#[N+]C(=CC1CC1)C(=O)N1CCC[C@@H](n2nc(-c3ccc(Oc4ccccc4)cc3F)c3c(N)ncnc32)C1` [Cpd 22B], the 50% inhibitory concentration (IC50) under setting [1] came to 2.6 nM. As for `CN(C)C(C)(C)C=C(C#N)C(=O)N1CCC[C@H]1Cn1nc(-c2ccc(Oc3cccc(F)c3F)cc2F)c2c(N)ncnc21` [Cpd 106B, (S)-2-(2-((4-amino-3-(4-(2,3-difluorophenoxy)-2-fluorophenyl)-1H-pyrazolo[3,4-d]pyrimidin-1-yl)methyl)pyrrolidine-1-carbonyl)-4-(dimethylamino)-4-methylpent-2-enenitrile], under setting [1], the half-maximal inhibitory concentration (IC50) amounted to 1.5 nM.

Take `N#CC(=CC1CC1)C(=O)N1CCC[C@@H]1Cn1nc(-c2ccc(Oc3c(F)cccc3F)cc2F)c2c(N)ncnc21` [Cpd 44A, (R)-2-(2-((4-amino-3-(2-fluoro-4-(2,6-difluorophenoxy)phenyl)-1H-pyrazolo[3,4-d]pyrimidin-1-yl)methyl)pyrrolidine-1-carbonyl)-3-cyclopropylacrylonitrile]: under setting [1], the IC50 worked out at 5 nM. With `CCOC(C)(C)C=C(C#N)C(=O)N1CCC[C@H]1Cn1nc(-c2ccc(Oc3ccccc3)cc2F)c2c(N)ncnc21` [Cpd 89B, (S)-2-(2-((4-amino-3-(2-fluoro-4-phenoxyphenyl)-1H-pyrazolo[3,4-d]pyrimidin-1-yl)methyl)pyrrolidine-1-carbonyl)-4-ethoxy-4-methylpent-2-enenitrile], the half-inhibitory concentration (IC50) under setting [1] is 6600 nM.
